Blank lines part the entries; values can stand above or below the compound they belong to.
Target: T1, Bcl-2 protein (Recombinant Human Bcl-2 Protein) (Homo sapiens, UniProt P10415)
T1 construct: purchased Novus NBP2-34889
Experiment: Binding evaluation of mixture library compounds to Bcl-2 using AS-MS (affinity selection mass spectrometry)
Conditions: for ASMS ratio (%) n = 1 / ASMS ratio (%) n = 2: ASMS Ratio(%)=(A−C)/B×100; for ASMS ratio (%) n = 1: replicate n = 1; for ASMS ratio (%) n = 2: replicate n = 2
Method in brief: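 Readout is ASMS Ratio (%), (A−C)/B×100, from reversed-phase LC/MS of SEC-passed extracts, with protein-free unfiltered standard (B) and protein-free SEC blank (C). Recombinant human Bcl-2 at 20 μM final met ~1200 pooled compounds at […] each for 1 h, 23° C., dark, in Tris-HCl pH 7.4 buffer.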

[1] = AS-MS on the mixture of 1200 library compounds
[2] = AS-MS, mixture of 1200 compounds, Bcl-2

T1 sequence (P10415 whole entry): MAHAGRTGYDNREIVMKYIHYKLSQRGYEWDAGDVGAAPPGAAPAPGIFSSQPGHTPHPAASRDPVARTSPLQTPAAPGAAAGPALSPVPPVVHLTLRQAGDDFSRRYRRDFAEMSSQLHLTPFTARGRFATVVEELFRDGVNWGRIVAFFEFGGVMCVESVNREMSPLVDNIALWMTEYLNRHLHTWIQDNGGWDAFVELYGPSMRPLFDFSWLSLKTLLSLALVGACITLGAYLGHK

ASMS ratio (%) n = 1 [1]: 5.6%
ASMS ratio (%) n = 2 [1]: −1.2%
Compound: CCOc1cncc(-c2cnn(-c3cc(C(=O)N4CCN(c5ccc(C(=O)Nc6ccc(OC)cc6)nn5)CC4)cc(C(F)(F)F)c3)c2)c1 [B1O022-01, 6-[4-[3-[4-(5-Ethoxypyridin-3-yl)pyrazol-1-yl]-5-(trifluoromethyl)benzoyl]piperazin-1-yl]-N-(4-methoxyphenyl)pyridazine-3-carboxamide]

ASMS ratio (%) (n = 1): 15.8%
ASMS ratio (%) (n = 2): 11.7%
Compound: CCOc1cncc(-c2ccc(CN3CCN(c4ccc(C(=O)NS(=O)(=O)c5ccc(NCCSc6ccccc6)c(C(F)(F)F)c5)nn4)CC3)cc2F)c1 [B2R078-01, 6-[4-[[4-(5-Ethoxypyridin-3-yl)-3-fluorophenyl]methyl]piperazin-1-yl]-N-[4-(2-phenylsulfanylethylamino)-3-(trifluoromethyl)phenyl]sulfonylpyridazine-3-carboxamide]

ASMS ratio (%) n = 1 [2]: 2.9%
ASMS ratio (%) n = 2 [2]: −1.8%
Compound: CCOc1cccc(-c2cc(C(=O)N3CCN(c4ccc(C(=O)NCC(F)(F)F)nn4)CC3)cc(C(C)(C)C)c2)c1 [B1K015-01, 6-[4-[3-tert-Butyl-5-(3-ethoxyphenyl)benzoyl]piperazin-1-yl]-N-(2,2,2-trifluoroethyl)pyridazine-3-carboxamide]

ASMS ratio (%) n = 1 [2]: 4.2%
ASMS ratio (%) n = 2 [2]: −0.2%
Compound: CCOc1cccc(-c2cc(OC)c(CN3CCN(c4ccc(C(=O)NCC(F)(F)F)nn4)CC3)c(OC)c2)c1 [B1K085-01]

ASMS ratio (%) n = 1 (AS-MS, mixture library, Bcl-2): 3.1%
ASMS ratio (%) n = 2 (AS-MS, mixture library, Bcl-2): 7.2%
Compound: CCOc1cccc(C#Cc2cncc(C(=O)N3CCN(c4ccc(C(=O)NS(=O)(=O)CC56CC7CC(CC(C7)C5)C6)nn4)CC3)c2)c1 [B2A009-01, N-(1-Adamantylmethylsulfonyl)-6-[4-[5-[2-(3-ethoxyphenyl)ethynyl]pyridine-3-carbonyl]piperazin-1-yl]pyridazine-3-carboxamide]

ASMS ratio (%) n = 1 [2]: 0.0%
ASMS ratio (%) n = 2 [2]: 0.6%
Compound: CCOc1cncc(-c2ccc(C(=O)N3CCN(c4ccc(C(=O)NCC(F)(F)F)nn4)CC3)cc2C)c1 [B1K004-01, 6-[4-[4-(5-Ethoxypyridin-3-yl)-3-methylbenzoyl]piperazin-1-yl]-N-(2,2,2-trifluoroethyl)pyridazine-3-carboxamide]

ASMS ratio (%) (n = 1): 0.0%
ASMS ratio (%) (n = 2): 0.0%
Compound: CCOc1cncc(-c2ccc(CN3CCN(c4ccc(C(=O)NS(C)(=O)=O)nn4)CC3)cc2F)c1 [B2I078-01]

Compound: CCOc1cccc(-c2ccc(CN3CCN(c4ccc(C(=O)NCC(F)(F)F)cc4)CC3)cc2C)c1 [B1K047-01]
ASMS ratio (%) n = 1 [2]: 3.3%
ASMS ratio (%) n = 2 [2]: 0.5%

ASMS ratio (%) n = 1 (AS-MS, mixture library, Bcl-2): 6.5%
ASMS ratio (%) n = 2 (AS-MS, mixture library, Bcl-2): −2.9%
Compound: CCOc1cccc(-c2ccccc2CN2CCN(c3ccc(C(=O)NS(=O)(=O)CC45CC6CC(CC(C6)C4)C5)cc3)CC2)c1 [B2A045-01, N-(1-Adamantylmethylsulfonyl)-4-[4-[[2-(3-ethoxyphenyl)phenyl]methyl]piperazin-1-yl]benzamide]

ASMS ratio (%) (n = 1): 0.0%
ASMS ratio (%) (n = 2): 0.0%
Compound: CCOc1cncc(C#Cc2cncc(C(=O)N3CCN(c4ccc(C(=O)NS(=O)(=O)c5ccc(NCCSc6ccccc6)c(C(F)(F)F)c5)nn4)CC3)c2)c1 [B2R010-01, 6-[4-[5-[2-(5-Ethoxypyridin-3-yl)ethynyl]pyridine-3-carbonyl]piperazin-1-yl]-N-[4-(2-phenylsulfanylethylamino)-3-(trifluoromethyl)phenyl]sulfonylpyridazine-3-carboxamide]

ASMS ratio (%) (n = 1): 0.0%
ASMS ratio (%) (n = 2): 0.0%
Compound: CCOc1cccc(-c2cc(OC)c(CN3CCN(c4ccc(C(=O)NS(C)(=O)=O)nn4)CC3)c(OC)c2)c1 [B2I085-01, 6-[4-[[4-(3-Ethoxyphenyl)-2,6-dimethoxyphenyl]methyl]piperazin-1-yl]-N-methylsulfonylpyridazine-3-carboxamide]

ASMS ratio (%) n = 1 (AS-MS, mixture library, Bcl-2): 0.2%
ASMS ratio (%) n = 2 (AS-MS, mixture library, Bcl-2): −2.5%
Compound: CCOc1cccc(-c2ccc(C(=O)N3CCN(c4ccc(C(=O)NS(=O)(=O)c5ccc(NCCSc6ccccc6)c([N+](=O)[O-])c5)cc4)CC3)cc2F)c1 [B2Q027-01, 4-[4-[4-(3-Ethoxyphenyl)-3-fluorobenzoyl]piperazin-1-yl]-N-[3-nitro-4-(2-phenylsulfanylethylamino)phenyl]sulfonylbenzamide]

ASMS ratio (%) (n = 1): 0.0%
ASMS ratio (%) (n = 2): 0.0%
Compound: CCOc1cncc(-c2ccc(CN3CCN(c4ccc(C(=O)NS(=O)(=O)CCC(F)(F)F)nn4)CC3)cc2C)c1 [B2N074-01, 6-[4-[[4-(5-Ethoxypyridin-3-yl)-3-methylphenyl]methyl]piperazin-1-yl]-N-(3,3,3-trifluoropropylsulfonyl)pyridazine-3-carboxamide]

ASMS ratio (%) n = 1 [1]: 2.2%
ASMS ratio (%) n = 2 [1]: −0.7%
Compound: CCOc1cncc(-c2csc(CN3CCN(c4ccc(C(=O)Nc5ccc(OC)cc5)nn4)CC3)c2)c1 [B1O094-01, 6-[4-[[4-(5-Ethoxypyridin-3-yl)thiophen-2-yl]methyl]piperazin-1-yl]-N-(4-methoxyphenyl)pyridazine-3-carboxamide]

ASMS ratio (%) (n = 1): 0.0%
ASMS ratio (%) (n = 2): 0.0%
Compound: CCOc1cccc(-c2ccc(CN3CCN(c4ccc(C(=O)NS(C)(=O)=O)cc4)CC3)c3ccccc23)c1 [B2I065-01, 4-[4-[[4-(3-Ethoxyphenyl)naphthalen-1-yl]methyl]piperazin-1-yl]-N-methylsulfonylbenzamide]

ASMS ratio (%) (n = 1): 0.0%
ASMS ratio (%) (n = 2): 0.0%
Compound: CCOc1cccc(-c2ccc(C(=O)N3CCN(c4ccc(C(=O)NS(=O)(=O)CCC(F)(F)F)nn4)CC3)c3ccccc23)c1 [B2N013-01, 6-[4-[4-(3-Ethoxyphenyl)naphthalene-1-carbonyl]piperazin-1-yl]-N-(3,3,3-trifluoropropylsulfonyl)pyridazine-3-carboxamide]

Compound: 6-[4-[4-(5-Ethoxypyridin-3-yl)thiophene-2-carbonyl]piperazin-1-yl]-N-propylpyridazine-3-carboxamide [B1M082-01]
ASMS ratio (%) n = 1 [1]: 0.0%
ASMS ratio (%) n = 2 [1]: 0.0%

ASMS ratio (%) (n = 1): 0.0%
ASMS ratio (%) (n = 2): 0.0%
Compound: CCOc1cncc(-c2ccc(C(=O)N3CCN(c4ccc(C(=O)NS(=O)(=O)C(C)(C)C)cc4)CC3)cc2F)c1 [B2L028-01, N-tert-Butylsulfonyl-4-[4-[4-(5-ethoxypyridin-3-yl)-3-fluorobenzoyl]piperazin-1-yl]benzamide]

ASMS ratio (%) n = 1 [1]: 0.0%
ASMS ratio (%) n = 2 [1]: 0.0%
Compound: CCOc1cncc(C#Cc2cncc(C(=O)N3CCN(c4ccc(C(=O)Nc5ccc(OC)cc5)nn4)CC3)c2)c1 [B1O010-01, 6-[4-[5-[2-(5-Ethoxypyridin-3-yl)ethynyl]pyridine-3-carbonyl]piperazin-1-yl]-N-(4-methoxyphenyl)pyridazine-3-carboxamide]

ASMS ratio (%) (n = 1): 0.0%
ASMS ratio (%) (n = 2): 0.0%
Compound: CCOc1cccc(-c2ccc(C(=O)N3CCN(c4ccc(C(=O)NS(=O)(=O)C(C)(C)C)nn4)CC3)c3ccccc23)c1 [B2L013-01, N-tert-Butylsulfonyl-6-[4-[4-(3-ethoxyphenyl)naphthalene-1-carbonyl]piperazin-1-yl]pyridazine-3-carboxamide]

ASMS ratio (%) (n = 1): 18.8%
ASMS ratio (%) (n = 2): 11.9%
Compound: CCOc1cncc(-c2csc(CN3CCN(c4ccc(C(=O)NS(=O)(=O)c5ccc(NCCSc6ccccc6)c(C(F)(F)F)c5)nn4)CC3)c2)c1 [B2R094-01, 6-[4-[[4-(5-Ethoxypyridin-3-yl)thiophen-2-yl]methyl]piperazin-1-yl]-N-[4-(2-phenylsulfanylethylamino)-3-(trifluoromethyl)phenyl]sulfonylpyridazine-3-carboxamide]

Source: patent US20240132431A1, “METHOD FOR ALKYLATING ACIDIC FUNCTIONAL GROUP” (Chugai Seiyaku Kabushiki Kaisha, priority 2021, published 2024)
